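Following 48 hours of exposure in 96-well plates, responses at five concentrations were used to interpolate endpoints linearly. Abbreviation: GI50, concentration required for 50% inhibition of growth.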 The source made the active and inactive calls. No stated cut-off is given here; in the data, active = GI50 up to about 1.1 µM and inactive = higher.
Key:
Test in all cases: inhibition of tumour cell growth, NCI panel, 48 h
786-0 = tested on: 786-0
A498 = tested on: A498
A549 = tested on: A549
ACHN = tested on: ACHN
BT-549 = tested on: BT-549
CAKI-1 = tested on: CAKI-1
CCRF-CEM = tested on: CCRF-CEM
COLO 205 = tested on: COLO 205
DU-145 = tested on: DU-145
EKVX = tested on: EKVX
HCC 2998 = tested on: HCC 2998
HCT-116 = tested on: HCT-116
HL-60 = tested on: HL-60
HOP-62 = tested on: HOP-62
HT-29 = tested on: HT-29
IGROV-1 = tested on: IGROV-1
K562 = tested on: K562
KM12 = tested on: KM12
M14 = tested on: M14
MCF7 = tested on: MCF7
MDA-MB-231 = tested on: MDA-MB-231
MDA-MB-435 = tested on: MDA-MB-435
MDA-N = tested on: MDA-N
MOLT-4 = tested on: MOLT-4
Malme-3M = tested on: Malme-3M
NCI-H460 = tested on: NCI-H460
NCI/ADR-RES = tested on: NCI/ADR-RES
OVCAR-3 = tested on: OVCAR-3
OVCAR-5 = tested on: OVCAR-5
OVCAR-8 = tested on: OVCAR-8
PC-3 = tested on: PC-3
RPMI-8226 = tested on: RPMI-8226
RXF 393 = tested on: RXF 393
SF-268 = tested on: SF-268
SF-295 = tested on: SF-295
SF-539 = tested on: SF-539
SK-MEL-28 = tested on: SK-MEL-28
SK-MEL-2 = tested on: SK-MEL-2
SK-MEL-5 = tested on: SK-MEL-5
SK-OV-3 = tested on: SK-OV-3
SN12C = tested on: SN12C
SNB-19 = tested on: SNB-19
SNB-75 = tested on: SNB-75
SR = tested on: SR
SW-620 = tested on: SW-620
T47D = tested on: T47D
TK-10 = tested on: TK-10
U-251 = tested on: U-251
UACC-257 = tested on: UACC-257
UACC-62 = tested on: UACC-62
UO-31 = tested on: UO-31
HCT-15 = tested on: HCT-15
LOX IMVI = tested on: LOX IMVI
NCI-H226 = tested on: NCI-H226
NCI-H23 = tested on: NCI-H23
NCI-H522 = tested on: NCI-H522
OVCAR-4 = tested on: OVCAR-4

Measured: GI50

O=C1CCCCC/C1=C\c1ccc([N+](=O)[O-])cc1
inactive: 786-0 19.7 µM | A498 35.2 µM | A549 36.5 µM | ACHN 21.5 µM | BT-549 23 µM | CAKI-1 22.7 µM | CCRF-CEM 26.7 µM | COLO 205 24 µM | DU-145 41.4 µM | EKVX 35.3 µM | HCC 2998 17.1 µM | HCT-116 22.7 µM | HL-60 28.9 µM | HOP-62 38.5 µM | HT-29 30.3 µM | IGROV-1 16.3 µM | K562 50 µM | KM12 19.8 µM | M14 32.1 µM | MCF7 46.3 µM | MDA-MB-231 13 µM | MDA-MB-435 38.1 µM | MDA-N 42.4 µM | MOLT-4 41.7 µM | Malme-3M 43.7 µM | NCI-H460 20.1 µM | NCI/ADR-RES 37.8 µM | OVCAR-3 21.9 µM | OVCAR-5 31.4 µM | OVCAR-8 38.8 µM | PC-3 38.6 µM | RPMI-8226 33.3 µM | RXF 393 33.4 µM | SF-268 30.5 µM | SF-295 35.2 µM | SF-539 26.5 µM | SK-MEL-28 65 µM | SK-MEL-2 33 µM | SK-MEL-5 20.1 µM | SK-OV-3 36.1 µM | SN12C 23.7 µM | SNB-19 29.4 µM | SNB-75 29.7 µM | SR 40.1 µM | SW-620 39.9 µM | T47D 31.5 µM | TK-10 28.5 µM | U-251 31.3 µM | UACC-257 20.9 µM | UACC-62 27.8 µM | UO-31 24.5 µM

Oc1cc(O)cc(-c2nc3cc(F)ccc3s2)c1
inactive: 786-0 20.6 µM | A498 18.5 µM | A549 26.1 µM | ACHN 24.7 µM | BT-549 20.2 µM | CAKI-1 25.5 µM | CCRF-CEM 27.5 µM | COLO 205 21 µM | DU-145 32.8 µM | HCT-116 24.5 µM | HT-29 21.4 µM | IGROV-1 27.7 µM | KM12 20.4 µM | LOX IMVI 18.5 µM | M14 19.4 µM | MCF7 20.3 µM | MDA-MB-231 25.6 µM | MDA-MB-435 30.5 µM | MDA-N 30.5 µM | Malme-3M 31.6 µM | NCI-H226 25.8 µM | NCI-H23 26.4 µM | NCI-H460 22.8 µM | NCI-H522 18.7 µM | NCI/ADR-RES 36.8 µM | OVCAR-3 22.6 µM | OVCAR-4 18.5 µM | OVCAR-5 20.8 µM | OVCAR-8 22.6 µM | PC-3 25.1 µM | RPMI-8226 18.5 µM | RXF 393 22.7 µM | SF-268 19.4 µM | SF-295 17.8 µM | SF-539 29 µM | SK-MEL-28 48.8 µM | SK-MEL-2 22.7 µM | SK-MEL-5 17.5 µM | SK-OV-3 25.8 µM | SN12C 29.4 µM | SNB-19 23.7 µM | SW-620 38.1 µM | T47D 17.5 µM | TK-10 30.3 µM | U-251 22.8 µM | UACC-257 16.4 µM | UACC-62 21.1 µM | UO-31 24 µM
19.7 µM: HCT-15

— ChEMBL document CHEMBL1201862, “PubChem BioAssay data set” (2004)
